Columns and labels:
Format in all cases: in vivo, human
[1] = test system: females between 13-18 years of age with a primary diagnosis of MDD, fluoxetine-treated (SSRI-resistant depression); assay: Open-label adjunctive creatine study: Children's Depression Rating Scale-Revised (CDRS-R) raw score
Method: Approval for the study was obtained from the University of Utah Institutional Review Board (IRB). Informed consent consisted of written parental permission as well as written assent from participants. The study was conducted under U.S. Food and Drug Administration (FDA) Investigational New Drug Application #104,586. An external Data Safety and Monitoring Board vested with authority to halt the trial was established, and the study was conducted in accordance of the principles of Good Clinical Practice (GCP).
Participants were recruited through clinician referrals and IRB-approved advertising. Consecutive patients who met inclusion criteria were enrolled. Inclusion criteria included the following: females between 13-18 years of age with a primary diagnosis of MDD and depressive symptoms persisting for >2 weeks at baseline; fluoxetine treatment for >8 weeks with >4 weeks at a dose of >40 mg/day (if doses higher than 20 mg/day were not tolerated, participants could meet inclusion criteria by taking fluoxetine 20 mg/day for >8 weeks); and a current Children's Depression Rating Scale-Revised (CDRS-R) (Poznanski and Mokros 1996) raw score>40. Consistent with the preliminary nature of the study, few exclusion criteria were applied. For example, no restrictions were placed on concomitant medications or psychotherapy. The study's exclusion criteria were: pre-existing renal disease, proteinuria or microalbuminuria at baseline; contraindication to magnetic resonance scanning (e.g. ferromagnetic implants or claustrophobia); primary diagnosis other than MDD; active psychotic symptoms; high risk for suicidal behavior; positive pregnancy test; active alcohol or drug addiction; known or suspected mental retardation; and unstable medical condition.
(§1) Diagnoses were established with the Schedule for Affective Disorders and Schizophrenia for School-Age Children-Present and Lifetime Version (K-SADS-PL) (Kaufman et al. 1997). A complete blood count, metabolic panel, lipid profile, thyroid stimulating hormone, urinalysis and urine microalbumin were obtained to establish that participants were in generally good health, and to rule out the presence of undiagnosed medical conditions. The laboratory studies were repeated at the conclusion of treatment, to prospectively identify any abnormalities associated with creatine administration.
Participants with depression were treated with fixed-dose Creapure® brand of creatine monohydrate (AlzChem LLC, Trostberg, Germany) 4 grams by mouth daily for 8 weeks. At each study visit, the following rating scales were administered: the CDRS ? R, the Clinical Global Impressions scale (Guy 1976) and the Columbia-Suicide Severity Rating Scale (C-SSRS) (Posner 2010). Adverse events were recorded at each study visit. Change in CDRS-R raw score was the primary outcome measure, with C-SSRS results and treatment-emergent adverse events serving as secondary clinical outcomes. ^31P-MRS brain scans were acquired with a Siemens 3 Tesla MRS scanner (Siemens AG, Munich, Germany) that is FDA-approved for clinical use. Two dimensional chemical shift imaging free induction decay (2D CSI FID) pulse sequence with an Fourier voxel resolution of 25×25×25 mm3, Field of View (FOV)=200×200×25 mm3, TR/TE=3000/2.3 ms, vector size=1024, bandwidth=2500 Hz, data collection time=11.2 minutes and the number of averages=24 was implemented to collect 2D CSI FID data using a ^31P/1H double-tuned volume head coil (Clinical MR Solutions LLC, Brookfield, Wis., USA). The proton channel was used for localization, high-resolution anatomic image acquisition and shimming Shimming was performed over the excited volume. 3D high-resolution images used for localization of CSI data were collected using inversion recovery magnetization prepared rapid gradient echo (MP-RAGE) pulse sequence with isotropic 1 mm3 resolution. […]

[2] = test system: brain phosphorus metabolites (PCr, b-NTP, pH); assay: 31P-MRS brain scans of phosphorus metabolites at baseline and after 8 weeks of creatine
Method: Healthy control female adolescents were recruited for comparison ^31P-MRS scans through IRB-approved advertising. Following informed consent, the K-SADS-PL and CDRS-R were administered to establish the absence of psychiatric disorder(s) or depressive symptoms.
(§2) Participants with depression were treated with fixed-dose Creapure® brand of creatine monohydrate (AlzChem LLC, Trostberg, Germany) 4 grams by mouth daily for 8 weeks. At each study visit, the following rating scales were administered: the CDRS ? R, the Clinical Global Impressions scale (Guy 1976) and the Columbia-Suicide Severity Rating Scale (C-SSRS) (Posner 2010). Adverse events were recorded at each study visit. Change in CDRS-R raw score was the primary outcome measure, with C-SSRS results and treatment-emergent adverse events serving as secondary clinical outcomes. ^31P-MRS brain scans were acquired with a Siemens 3 Tesla MRS scanner (Siemens AG, Munich, Germany) that is FDA-approved for clinical use. Two dimensional chemical shift imaging free induction decay (2D CSI FID) pulse sequence with an Fourier voxel resolution of 25×25×25 mm3, Field of View (FOV)=200×200×25 mm3, TR/TE=3000/2.3 ms, vector size=1024, bandwidth=2500 Hz, data collection time=11.2 minutes and the number of averages=24 was implemented to collect 2D CSI FID data using a ^31P/1H double-tuned volume head coil (Clinical MR Solutions LLC, Brookfield, Wis., USA). The proton channel was used for localization, high-resolution anatomic image acquisition and shimming Shimming was performed over the excited volume. 3D high-resolution images used for localization of CSI data were collected using inversion recovery magnetization prepared rapid gradient echo (MP-RAGE) pulse sequence with isotropic 1 mm3 resolution. The imaging parameters were as follows: TR/TE=2000/3.37 ms, FOV=256×192×144 mm3, and matrix size=256×1 92×144, for a total acquisition time of 4.8 minutes. Participants were instructed during the informed consent process, and again before entering the scanner, that they could discontinue scanning at any point if they experienced discomfort (e.g. claustrophobic anxiety). Non-study personnel trained in research patient advocacy attended each scanning session. The study protocol included two ^31P-MRS scans: one at baseline and a follow-up scan 8 weeks later.
^31P MRS data were analyzed using jMRUI software (jMRUI version 4.0, European Community). A Hamming filter was applied to reduce signal contamination from neighbouring voxels before performing 2D Fast Fourier Transform (FFT) on the raw data. Nine voxel signals from a slice with a thickness of 25 mm located at the corpus callosum, anterior commissure and posterior commissure were summed after 2D FFT. Each voxel FID was apodized with a 10 Hz exponential line broadening before zero filling and FFT. The zero-order and first-order phase correction was performed in all spectrums.
We calculated the signal amplitudes for individual metabolites using AMARES (Advanced Method for Accurate, Robust and Efficient Spectral fitting of MRS data), which is a non-linear, time domain fitting algorithm within the jMRUI software application. The estimated amplitudes of phosphorus metabolites are reported with respect to the total ^31P or beta-NTP amplitude within the time domain signals. The ^31P MRS signal amplitude for each metabolite is directly related to the integrated area under the modeled spectrum in the frequency domain.
The depressed participants' ^31P-MRS brain scans were performed at baseline (prior to the first dose of creatine) and repeated at the conclusion of treatment. We enrolled and acquired baseline scans from ten healthy female adolescent controls; six agreed to return eight weeks later for a second scan. Statistical analyses were performed using JMP 8 (SAS Inc., Cary, N.C. USA). Because this was an open-label pilot study, all analyses were considered exploratory and no correction for multiple hypothesis testing was applied.

[3] = test system: suicidality in female adolescents with MDD; assay: Columbia-Suicide Severity Rating Scale (C-SSRS) monitoring during creatine treatment; details: for C-SSRS During Treatment With Creatine (Weeks): monohydrate
Method: as §2
One participant reported no history of suicidal thoughts or behavior, but the others each endorsed significant histories of suicidality, indicating the severity and chronicity of the participants. Three of the participants had attempted suicide between 5 months and 5 years prior to study entry; at intake, four participants reported suicidal ideation in the 2 weeks prior to their baseline visit. During the treatment phase of the study, two participants reported no suicidality. Three participants reported suicidal ideation as treatment began, which lasted between 2 and 6 weeks. […]

[4] = Adverse events, vital signs and laboratory tests during creatine treatment
Text: as §1, §2
Participants' vital signs were recorded at each study visit. […] Although not measured systematically, participant and parent acceptance of creatine as a treatment intervention appeared good, and there were no premature terminations due to concerns about the study drug.

[5] = entry vs week 8, creatine 4 g daily adjunctive to fluoxetine, n=5

## CN(CC(=O)O)C(=N)N.O [creatine, creatine monohydrate]
[1]; creatine monohydrate 4 g by mouth daily for 8 weeks, adjunctive to fluoxetine, n=5, mean raw score at entry 69
  mean CDRS-R score after eight weeks of treatment: 30.6
[1]; [5]
  decrease of mean CDRS-R raw score: 56%
  mean reduction in CDRS-R raw score (primary outcome measure): 38.4
[1]; participant 1, week 8, baseline 82, fluoxetine 40 mg
  CDRS-R (Week): 24 (8)
[1]; participant 2, week 8, baseline 76, fluoxetine 40 mg
  CDRS-R (Week): 44 (8)
[1]; participant 3, week 8, baseline 59, fluoxetine 40 mg
  CDRS-R (Week): 29 (8)
[1]; participant 4, week 8, baseline 66, fluoxetine 20 mg
  CDRS-R (Week): 23 (8)
[1]; participant 5, week 8, baseline 62, fluoxetine 40 mg
  CDRS-R (Week): 33 (8)
[1]; two weeks after discontinuation of creatine, compared with week 8
  mean CDRS-R raw score at week ten: lower than at the conclusion of treatment
[2]; MDD group n=5 after 8 weeks creatine 4 g daily, mean baseline 0.1525, p 0.020 paired t-test
  PCr-TP, Mean 8 Weeks: 0.1610
[2]; MDD group n=5 after 8 weeks creatine, mean baseline 0.125, p 0.729
  b-NTP/TP, Mean 8 Weeks: 0.128
[2]; MDD group n=5 after 8 weeks creatine, mean baseline 1.221, p 0.528
  PCr/b-NTP, Mean 8 Weeks: 1.270
[2]; MDD group n=5 after 8 weeks creatine, mean baseline 7.059, p 0.648
  pH, Mean 8 Weeks: 7.071
[2]; following 8 weeks of treatment
  change in mean PCr/b-NTP ratio: no change
  change in mean b-NTP: no change
  change in mean pH: no change
[2]; following 8 weeks of treatment, p=0.020, paired t-test, 2-tailed
  change in mean PCr: significant increase
[3]; in vivo
  duration of suicidal ideation reported as treatment began: 2-6 weeks
  outcome of participants' suicidal thoughts: resolved during treatment with creatine and did not recur
[3]; participant 3, baseline: wish to be dead 1 week prior to study drug
  C-SSRS During Treatment With Creatine (Weeks): Wish to be Dead (1)
[3]; participant 4, baseline: wish to be dead 1 week prior to study entry
  C-SSRS During Treatment With Creatine (Weeks): Wish to be Dead (1-5)
[4]; in vivo
  Serious Adverse Events (SAEs): no Serious Adverse Events
  changes in weight, blood pressure or heart rate: No statistically significant changes
  course of adverse events: self-limited
  microalbuminuria or serum creatinine outside the reference range: No participant developed microalbuminuria or a serum creatinine outside the reference range
  tolerability: well tolerated
  withdrawal due to treatment emergent adverse effects or lack of efficacy: No participant withdrew
[4]; participant 3, * = possibly or probably related to study drug, monohydrate
  Adverse Events: H1N1 influenza*

From US20130324609A1, “DEPRESSION DISORDER THERAPEUTICS WITH CREATINE ANALOGS” (UNIVERSITY OF UTAH RESEARCH FOUNDATION, priority 2010, published 2013)
